# From publication PMC5077133, “Towards Development of Small Molecule Lipid II Inhibitors as Novel Antibiotics” (PLoS ONE, 2016)
# Assays:
# [1] = system: A. baumanii ATCC 19606; test: Antibacterial activity (MIC, broth dilution); assay type: cell-based, Acinetobacter baumanii; settings: CLSI, in µg/mL
# From the text: Staphylococcus aureus ATCC 29213, Escherichia coli ATCC 25922, Enterococcus faecalis ATCC 29212, Streptococcus pneumonia ATCC 49619 and Acinetobacter baumanii ATCC 19606 were obtained from Microbiologics (St. Cloud, MN). E. faecalis ATCC 51575, ATCC 51299 and REMEL C99707 and E. faecium ATCC 51559 (MDR), REMEL IH79985 and REMEL C110914 were generously provided by the Laboratory of Pathology, University of Maryland Baltimore School of Medicine. Unless stated otherwise, chemicals and reagents were purchased from Sigma.
# (§1) Determination of the Minimal Inhibitory Concentrations (MIC) by dilution was carried out by broth dilution according to CLSI standards.
# [2] = system: E. aerogenes ATCC 13048; test: Antibacterial activity (MIC, broth dilution); assay type: cell-based; settings: CLSI
# Method: as §1
# [3] = system: E. cloacae ATCC 13047; test: Antibacterial activity (MIC, broth dilution); assay type: cell-based; settings: CLSI
# Method: as §1
# [4] = system: E. faecium EF1509 (VRE); test: Antibacterial activity (MIC, broth dilution); assay type: cell-based; settings: CLSI, in µg/mL
# Method: as §1
# [5] = system: E. faecium F118 (VRE); test: Antibacterial activity (MIC, broth dilution); assay type: cell-based; settings: CLSI, in µg/mL
# Method: as §1
# [6] = system: K. pneumoniae NR-15410 (KPC); test: Antibacterial activity (MIC, broth dilution); assay type: cell-based; settings: CLSI
# Method: as §1
# [7] = system: K. pneumoniae NR-15411 (KPC); test: Antibacterial activity (MIC, broth dilution); assay type: cell-based; settings: CLSI
# Method: as §1
# [8] = system: P. aeruginosa ATCC 27853; test: Antibacterial activity (MIC, broth dilution); assay type: cell-based; settings: CLSI
# Method: as §1
# [9] = system: P. aeruginosa PA01; test: Antibacterial activity (MIC, broth dilution); assay type: cell-based; settings: CLSI
# Method: as §1
# [10] = system: P. aeruginosa X13273; test: Antibacterial activity (MIC, broth dilution); assay type: cell-based; settings: CLSI, in µg/mL
# Method: as §1
# [11] = system: S. aureus HFH-30123 (MRSA); test: Antibacterial activity (MIC, broth dilution); assay type: cell-based; settings: CLSI
# Method: as §1
# [12] = system: S. aureus MRSA 1094; test: Antibacterial activity (MIC, broth dilution); assay type: cell-based; settings: CLSI
# Method: as §1
# [13] = system: HeLa cells; test: Cytotoxicity against mammalian cells (MTS assay); assay type: cell-based
# Method: The cytotoxicity concentration of antibacterial compounds that produces half maximal decrease in viability (CC50) against mammalian cells (HeLa, ATCC CCL-2.2) was determined as described. The effect of compounds on HeLa cell viability was assessed in triplicate by measuring the mitochondrial activity using MTS assays according to the manufacturer’s instructions (Cell Titer 96 proliferation assay, Promega). The cells were incubated for 72 hours in RPMI1640 medium containing the compounds at final concentrations ranging from 64 to 0.125 μg/ml. CC50 was determined using a standard curve of serially diluted untreated cells in each experiment.
# [14] = Lipid II binding by Surface Plasmon Resonance; settings: SPR, immobilized 3-Lipid II, 25°C
# Method: Short-chain water-soluble Lipid II containing a lipid tail of three isoprene units was generated and purified essentially as described. Typically, M. flavus vesicles (120 μmol lipid-Pi) were incubated together with 500 μmol UDP-GlcNAc, 500 μmol UDP-MurNAC-pentapeptide and 400 μmol farnesyl phosphate in 100 mM Tris-HCl pH 8.0, 5 mM MgCl2. The incubation lasted two hours at room temperature for 3-P. The synthesis of 3-Lipid II was followed using RP-8 reversed phase TLC (Merck) developed in 75% methanol. For purification, the membranes were removed by centrifugation at 40,000 x g and the supernatant was collected and loaded on a C18 HPLC column and eluted with a linear gradient from 50 mM ammonium bicarbonate to 100% methanol in 30 minutes. Farnesyl-Lipid II (3-Lipid II) eluted at approximately 60% methanol. Its identity was confirmed by mass spectroscopy. Surface Plasmon Resonance binding experiments were carried out on a BIAcore T100 system (BIAcore Inc., Piscataway, NY) at 25°C. The assay buffer was 10 mM HEPES, 150 mM NaCl, 0.05% surfactant P20, pH 7.4 (± 3 mM EDTA) supplemented with 10% DMSO. 3-Lipid II (50 RUs) was immobilized on CM5 sensor chips using the amine-coupling chemistry recommended by the manufacturer. For initial determination of binding, compounds were introduced into the flow-cells (30 μl/min) in the running buffer at 10 μM. Resonance signals were corrected for nonspecific binding by subtracting the background of the control flow-cell. After each analysis, the sensor chip surfaces were regenerated with 50 mM NaOH for 30 s at a flow rate 100 μl/min, and equilibrated with the buffer prior to next injection. For binding kinetics studies, binding isotherms were analyzed with manufacturer-supplied software for BIAcore T100.
SMILES,Antibacterial activity (MIC) A. baumanii ATCC 19606 [1],Antibacterial activity (MIC) E. aerogenes ATCC 13048 [2] [µg/mL],Antibacterial activity (MIC) E. cloacae ATCC 13047 [3] [µg/mL],Antibacterial activity (MIC) E. faecium EF1509 (VRE) [4],Antibacterial activity (MIC) E. faecium F118 (VRE) [5],Antibacterial activity (MIC) K. pneumoniae NR-15410 (KPC) [6] [µg/mL],Antibacterial activity (MIC) K. pneumoniae NR-15411 (KPC) [7] [µg/mL],Antibacterial activity (MIC) P. aeruginosa ATCC 27853 [8] [µg/mL],Antibacterial activity (MIC) P. aeruginosa PA01 [9] [µg/mL],Antibacterial activity (MIC) P. aeruginosa X13273 [10],Antibacterial activity (MIC) S. aureus HFH-30123 (MRSA) [11] [µg/mL],Antibacterial activity (MIC) S. aureus MRSA 1094 [12] [µg/mL],CC50% (72 h HeLa cells) [13],Kd [14] [µM],Lipid II binding Kd [14]
CCc1ccc(-c2cc(/C=C/c3cc4c5c(c3)CCCN5CCC4)[o+]c(-c3ccc(CC)cc3)c2)cc1.F[B-](F)(F)F [6jc-69-1],32,≥ 64,≥ 64,2,2,≥ 64,≥ 64,≥ 64,≥ 64,>=64,2,2,<.78125,16.1 ± 0.3,
Cc1ccc(-c2cc(/C=C/c3cn(C)c4ccccc34)[o+]c(-c3ccc(C)cc3)c2)cc1.F[B-](F)(F)F [6jc65-2],32,64,64,2,4,64,≥ 64,≥ 64,≥ 64,>=64,2,2,0.94,3.9 ± 0.4,
Cc1cc(/C=C/c2ccc(N(C)C)cc2)cc(C)[o+]1.F[B-](F)(F)F [6jc37],>=64,≥ 64,≥ 64,64,64,≥ 64,≥ 64,≥ 64,≥ 64,>=64,16,16,18.96,,No
Cc1cc(/C=C/C=C/c2ccc(N(C)C)cc2)cc(C)[o+]1.F[B-](F)(F)F [6jc38],>=64,≥ 64,≥ 64,>=64,>=64,≥ 64,≥ 64,≥ 64,≥ 64,>=64,≥ 64,64,>32,,No
CCc1ccc(-c2cc(/C=C/C=C/c3ccc(N(C)C)cc3)[o+]c(-c3ccc(CC)cc3)c2)cc1.F[B-](F)(F)F [6jc64-2],>=64,≥ 64,≥ 64,5.66,16,≥ 64,≥ 64,≥ 64,≥ 64,>=64,8,8,<.78125,23.8 ± 4,
Cc1ccc(-c2cc(/C=C/c3ccc(N(C)C)cc3)[o+]c(-c3ccc(C)c(C)c3)c2)cc1C.F[B-](F)(F)F [6jc-59-1],>=64,≥ 64,≥ 64,4,4,≥ 64,≥ 64,≥ 64,≥ 64,>=64,2,2,<.78125,1.9 ± 0.3,
CN(C)c1ccc(/C=C/c2cc(-c3ccc(Cl)cc3)cc(-c3ccc(Cl)cc3)[o+]2)cc1.F[B-](F)(F)F [6jc41-1],>=64,≥ 64,≥ 64,22.63,8,≥ 64,≥ 64,≥ 64,≥ 64,>=64,32,16,>32,34 ± 4,
CN(C)c1ccc(/C=C/c2cc(-c3ccc(C(C)(C)C)cc3)cc(-c3ccc(C(C)(C)C)cc3)[o+]2)cc1.F[B-](F)(F)F [6jc-60-1],>=64,≥ 64,≥ 64,8,8,≥ 64,≥ 64,≥ 64,≥ 64,>=64,8,8,<.78125,37.9 ± 4,
CN(C)c1ccc(/C=C/C=C/c2cc(-c3ccccc3)cc(-c3ccccc3)[o+]2)cc1.F[B-](F)(F)F [6jc43-1],45.25,≥ 64,≥ 64,4,4,≥ 64,≥ 64,≥ 64,≥ 64,>=64,4,4,0.93,62 ± 6,
CN(C)c1ccc(/C=C/C=C/c2cc(-c3ccc(Br)cc3)cc(-c3ccc(Br)cc3)[o+]2)cc1.F[B-](F)(F)F [6jc48-2],>=64,≥ 64,≥ 64,4,16,≥ 64,≥ 64,≥ 64,≥ 64,>=64,≥ 64,≥ 64,60.51,1.14 ± 0.3,
